In US7186831B2, “5-halo-2-alkyl[1,2,4]triazolo[1,5-a]pyrimidin-7-amines” (priority 2001, dated 2007):

Experiment: log P by HPLC
Assay type: physicochemical
Conditions: HPLC, gradient method, acetonitrile/0.1% aqueous phosphoric acid; EEC directive 79/831 Annex V. A8
A logP of 3.13 was found for `CN(C)c1c(-c2ccccc2Cl)c(Cl)nc2nc(C3CC3)nn12` [compound 36] in this work.
A logP of 3.05 was found for `CCc1nc2nc(Cl)c(-c3c(F)cc(F)cc3F)c(NNC(C)C)n2n1` [compound 49] in this work.
A logP of 3 was found for `Cc1nc2nc(Cl)c(-c3c(F)cc(F)cc3F)c(N3CC(C)OC(C)C3)n2n1` (stereo not drawn) [compound 58] in this work.
A logP of 2.86 was found for `Cc1nc2nc(Cl)c(-c3c(F)cc(F)cc3F)c(N3CCCC3)n2n1` [compound 59] in this work.
A logP of 3.43 was found for `Cc1nc2nc(Cl)c(-c3c(F)cc(F)cc3F)c(N3CCCCC3)n2n1` [compound 60] in this work.
A logP of 2.75 was found for `CCCNc1c(-c2c(F)cc(F)cc2F)c(Cl)nc2nc(C)nn12` [compound 61] in this work.
A logP of 3.23 was found for `Cc1nc2nc(Cl)c(-c3c(F)cc(F)cc3F)c(NC3CCCC3)n2n1` [compound 62] in this work.
A logP of 3.23 was found for `CCN(CC)c1c(-c2c(F)cc(F)cc2F)c(Cl)nc2nc(C)nn12` [compound 63] in this work.
A logP of 2.34 was found for `COCCNc1c(-c2c(F)cc(F)cc2F)c(Cl)nc2nc(C)nn12` [compound 64] in this work.
A logP of 2.51 was found for `Cc1nc2nc(Cl)c(-c3c(F)cc(F)cc3F)c(NC3CC3)n2n1` [compound 65] in this work.
A logP of 3.09 was found for `Cc1nc2nc(Cl)c(-c3c(F)cc(F)cc3F)c(N3CCSCC3)n2n1` [compound 66] in this work.
A logP of 3.6 was found for `Cc1nc2nc(Cl)c(-c3c(F)cc(F)cc3F)c(N3CCC(C(F)(F)F)CC3)n2n1` [compound 67] in this work.
A logP of 2.86 was found for `Cc1nc2nc(Cl)c(-c3c(F)cc(F)cc3F)c(NCC3CC3)n2n1` [compound 68] in this work.
A logP of 3.04 was found for `Cc1nc2nc(Cl)c(-c3c(F)cc(F)cc3F)c(NC(C)C(F)(F)F)n2n1` (stereo not drawn) [compound 69] in this work.
A logP of 2.85 was found for `Cc1nc2nc(Cl)c(-c3c(F)cc(F)cc3F)c(NCCC(F)(F)F)n2n1` [compound 70] in this work.
A logP of 3.57 was found for `CCc1nc2nc(Cl)c(-c3c(F)cc(F)cc3F)c(N3CC(C)OC(C)C3)n2n1` (stereo not drawn) [compound 71] in this work.
A logP of 3.29 was found for `CCc1nc2nc(Cl)c(-c3c(F)cc(F)cc3F)c(N3CCCC3)n2n1` [compound 72] in this work.
A logP of 3.94 was found for `CCc1nc2nc(Cl)c(-c3c(F)cc(F)cc3F)c(N3CCCCC3)n2n1` [compound 73] in this work.
A logP of 3.14 was found for `CCCNc1c(-c2c(F)cc(F)cc2F)c(Cl)nc2nc(CC)nn12` [compound 74] in this work.
A logP of 3.66 was found for `CCc1nc2nc(Cl)c(-c3c(F)cc(F)cc3F)c(NC3CCCC3)n2n1` [compound 75] in this work.
A logP of 3.15 was found for `CCc1nc2nc(Cl)c(-c3c(F)cc(F)cc3F)c(NC(C)C)n2n1` [compound 76] in this work.
A logP of 3.71 was found for `CCc1nc2nc(Cl)c(-c3c(F)cc(F)cc3F)c(N(CC)CC)n2n1` [compound 77] in this work.
A logP of 2.68 was found for `CCc1nc2nc(Cl)c(-c3c(F)cc(F)cc3F)c(NCCOC)n2n1` [compound 78] in this work.
A logP of 2.85 was found for `CCc1nc2nc(Cl)c(-c3c(F)cc(F)cc3F)c(NC3CC3)n2n1` [compound 79] in this work.
A logP of 3.53 was found for `CCc1nc2nc(Cl)c(-c3c(F)cc(F)cc3F)c(N3CCSCC3)n2n1` [compound 80] in this work.
A logP of 3.23 was found for `CCc1nc2nc(Cl)c(-c3c(F)cc(F)cc3F)c(NCC3CC3)n2n1` [compound 81] in this work.
A logP of 3.01 was found for `Cc1nc2nc(Cl)c(-c3ccc(F)c(Cl)c3)c(NC(C)C)n2n1` [compound 82] in this work.
A logP of 3.2 was found for `Cc1nc2nc(Cl)c(-c3c(F)cc(F)cc3F)c(N3CC=CCC3)n2n1` [compound 83] in this work.
A logP of 3.68 was found for `CC(C)NNc1c(-c2c(F)cc(F)cc2F)c(Cl)nc2nc(C(F)(F)F)nn12` [compound 84] in this work.
A logP of 3.57 was found for `CC1=CCCN(c2c(-c3c(F)cc(F)cc3F)c(Cl)nc3nc(C)nn23)C1` [compound 85] in this work.
A logP of 2.49 was found for `Cc1nc2nc(Cl)c(-c3c(F)cc(F)cc3F)c(N(C)C)n2n1` [compound 86] in this work.
A logP of 2.44 was found for `CCNc1c(-c2c(F)cc(F)cc2F)c(Cl)nc2nc(C)nn12` [compound 87] in this work.
A logP of 3.7 was found for `Cc1nc2nc(Cl)c(-c3c(F)cc(F)cc3F)c(NC(C)(C)C(F)(F)F)n2n1` [compound 88] in this work.
A logP of 2.43 was found for `Cc1nc2nc(Cl)c(-c3c(F)cc(F)cc3F)c(N3CCOCC3)n2n1` [compound 89] in this work.
A logP of 2.12 was found for `CNc1c(-c2c(F)cc(F)cc2F)c(Cl)nc2nc(C)nn12` [compound 90] in this work.
A logP of 2.78 was found for `CCNc1c(-c2c(F)cc(F)cc2F)c(Cl)nc2nc(CC)nn12` [compound 91] in this work.
A logP of 2.8 was found for `CCc1nc2nc(Cl)c(-c3c(F)cc(F)cc3F)c(N3CCOCC3)n2n1` [compound 92] in this work.
A logP of 2.44 was found for `CCc1nc2nc(Cl)c(-c3c(F)cc(F)cc3F)c(NC)n2n1` [compound 93] in this work.
A logP of 4.27 was found for `CCc1nc2nc(Cl)c(-c3c(F)cc(F)cc3F)c(N3CCCCC3C(F)(F)F)n2n1` (stereo not drawn) [compound 94] in this work.
A logP of 4.69 was found for `C=C(C)CN(CC)c1c(-c2c(F)cc(F)cc2F)c(Cl)nc2nc(C(F)(F)F)nn12` [compound 95] in this work.
A logP of 3.73 was found for `C=C(C)CN(CC)c1c(-c2ccc(F)cc2F)c(Cl)nc2nc(C)nn12` [compound 96] in this work.
A logP of 3.32 was found for `Cc1nc2nc(Cl)c(-c3ccc(F)c(Cl)c3)c(NC(C)C(F)(F)F)n2n1` (stereo not drawn) [compound 97] in this work.
A logP of 1.85 was found for `Cc1nc2nc(Cl)c(-c3c(F)cc(F)cc3F)c(N3CCC(O)C3)n2n1` (stereo not drawn) [compound 98] in this work.
A logP of 2.15 was found for `Cc1nc2nc(Cl)c(-c3c(F)cc(F)cc3F)c(N3CCCC(O)C3)n2n1` (stereo not drawn) [compound 99] in this work.
A logP of 3.6 was found for `CN(C)c1c(-c2c(F)cc(F)cc2F)c(Cl)nc2nc(C(F)(F)F)nn12` [compound 100] in this work.
A logP of 4.18 was found for `CC1CN(c2c(-c3c(F)cc(F)cc3F)c(Cl)nc3nc(C(F)(F)F)nn23)CC(C)O1` (stereo not drawn) [compound 101] in this work.
A logP of 3.5 was found for `CCNc1c(-c2c(F)cc(F)cc2F)c(Cl)nc2nc(C(F)(F)F)nn12` [compound 102] in this work.
A logP of 3.92 was found for `Fc1cc(F)c(-c2c(Cl)nc3nc(C(F)(F)F)nn3c2N2CCCC2)c(F)c1` [compound 103] in this work.
A logP of 4.46 was found for `Fc1cc(F)c(-c2c(Cl)nc3nc(C(F)(F)F)nn3c2N2CCCCC2)c(F)c1` [compound 104] in this work.
A logP of 4.37 was found for `CC(C)(Nc1c(-c2c(F)cc(F)cc2F)c(Cl)nc2nc(C(F)(F)F)nn12)C(F)(F)F` [compound 105] in this work.
A logP of 3.82 was found for `CCCNc1c(-c2c(F)cc(F)cc2F)c(Cl)nc2nc(C(F)(F)F)nn12` [compound 106] in this work.
A logP of 3.38 was found for `COCCNc1c(-c2c(F)cc(F)cc2F)c(Cl)nc2nc(C(F)(F)F)nn12` [compound 107] in this work.
A logP of 3.17 was found for `CNc1c(-c2c(F)cc(F)cc2F)c(Cl)nc2nc(C(F)(F)F)nn12` [compound 108] in this work.
A logP of 4.76 was found for `Fc1cc(F)c(-c2c(Cl)nc3nc(C(F)(F)F)nn3c2N2CCCCC2C(F)(F)F)c(F)c1` (stereo not drawn) [compound 109] in this work.
A logP of 4.09 was found for `Fc1cc(F)c(-c2c(Cl)nc3nc(C(F)(F)F)nn3c2N2CCSCC2)c(F)c1` [compound 110] in this work.
A logP of 3.89 was found for `Fc1cc(F)c(-c2c(Cl)nc3nc(C(F)(F)F)nn3c2NCC2CC2)c(F)c1` [compound 111] in this work.
A logP of 2.84 was found for `Cc1nc2nc(Cl)c(-c3c(F)cc(F)cc3F)c(N3CCSC3)n2n1` [compound 112] in this work.
A logP of 3.03 was found for `Cc1nc2nc(Cl)c(-c3c(F)cc(F)cc3F)c(NC(C)C(F)(F)F)n2n1` (stereo not drawn) [compound 113] in this work.
A logP of 3.91 was found for `C=C(C)CN(CC)c1c(-c2c(F)cccc2Cl)c(Cl)nc2nc(C)nn12` [compound 114] in this work.
A logP of 1.93 was found for `COC(=O)C(CO)Nc1c(-c2c(F)cc(F)cc2F)c(Cl)nc2nc(C)nn12` (stereo not drawn) [compound 115] in this work.
A logP of 2.64 was found for `COCC(C)Nc1c(-c2c(F)cc(F)cc2F)c(Cl)nc2nc(C)nn12` (stereo not drawn) [compound 116] in this work.
A logP of 3.52 was found for `Cc1nc2nc(Cl)c(-c3c(F)cc(F)cc3F)c(N3C(C)C=CC3C)n2n1` (stereo not drawn) [compound 117] in this work.
A logP of 3.11 was found for `COC(=O)C(Nc1c(-c2c(F)cc(F)cc2F)c(Cl)nc2nc(C)nn12)C(C)C` (stereo not drawn) [compound 118] in this work.
A logP of 3.47 was found for `COC(=O)C(COC(C)(C)C)Nc1c(-c2c(F)cc(F)cc2F)c(Cl)nc2nc(C)nn12` (stereo not drawn) [compound 120] in this work.
A logP of 1.93 was found for `Cc1nc2nc(Cl)c(-c3c(F)cc(F)cc3F)c(NC(C)CO)n2n1` (stereo not drawn) [compound 122] in this work.
A logP of 2.74 was found for `COC(OC)C(C)Nc1c(-c2c(F)cc(F)cc2F)c(Cl)nc2nc(C)nn12` (stereo not drawn) [compound 123] in this work.
A logP of 2.45 was found for `COC(=O)C(C)Nc1c(-c2c(F)cc(F)cc2F)c(Cl)nc2nc(C)nn12` (stereo not drawn) [compound 124] in this work.
A logP of 2.13 was found for `COC(=O)CNc1c(-c2c(F)cc(F)cc2F)c(Cl)nc2nc(C)nn12` [compound 125] in this work.
A logP of 3.44 was found for `Cc1nc2nc(Cl)c(-c3c(F)cc(F)cc3F)c(NC(C)C(=O)OC(C)(C)C)n2n1` (stereo not drawn) [compound 126] in this work.
A logP of 3.47 was found for `CCc1nc2nc(Cl)c(-c3c(F)cc(F)cc3F)c(N(N)CC(C)C)n2n1` [compound 127] in this work.
A logP of 2.84 was found for `CCN(CCOC)c1c(-c2ccc(F)cc2F)c(Cl)nc2nc(C)nn12` [compound 128] in this work.
A logP of 3.06 was found for `Cc1nc2nc(Cl)c(-c3c(F)cc(F)cc3F)c(N(N)CC(C)C)n2n1` [compound 129] in this work.
A logP of 3.12 was found for `Cc1nc2nc(Cl)c(-c3c(F)cccc3Cl)c(N(N)CC(C)C)n2n1` [compound 130] in this work.
A logP of 3.31 was found for `Cc1nc2nc(Cl)c(-c3ccc(F)c(Cl)c3)c(N(N)CC(C)C)n2n1` [compound 131] in this work.
A logP of 3.01 was found for `Cc1nc2nc(Cl)c(-c3c(F)cccc3Cl)c(NC(C)C(F)(F)F)n2n1` (stereo not drawn) [compound 132] in this work.
A logP of 3.9 was found for `C=C(C)CN(CC)c1c(-c2ccccc2Cl)c(Cl)nc2nc(C)nn12` [compound 133] in this work.
A logP of 3.37 was found for `Cc1nc2nc(Cl)c(-c3c(F)cc(F)cc3F)c(NC(C)C(C)C)n2n1` (stereo not drawn) [compound 134] in this work.
A logP of 2.88 was found for `Cc1nc2nc(Cl)c(-c3c(F)cccc3F)c(NOCC(C)C)n2n1` [compound 135] in this work.
A logP of 2.22 was found for `CCONc1c(-c2c(F)cccc2F)c(Cl)nc2nc(C)nn12` [compound 136] in this work.
A logP of 3.21 was found for `Cc1nc2nc(Cl)c(-c3c(F)cccc3F)c(NOCc3cccc(Cl)c3)n2n1` [compound 137] in this work.
A logP of 3.23 was found for `Cc1nc2nc(Cl)c(-c3c(F)cccc3F)c(NOCc3ccc(Cl)cc3)n2n1` [compound 138] in this work.
A logP of 2.78 was found for `CCC(C)ONc1c(-c2c(F)cccc2F)c(Cl)nc2nc(C)nn12` (stereo not drawn) [compound 139] in this work.
A logP of 2.38 was found for `C=CCONc1c(-c2c(F)cccc2F)c(Cl)nc2nc(C)nn12` [compound 140] in this work.
A logP of 2.68 was found for `Cc1nc2nc(Cl)c(-c3c(F)cccc3F)c(NOC(C)(C)C)n2n1` [compound 141] in this work.
